# Assay results taken from US8664257B2, “Oxygen-substituted 3-heteroaroylamino-propionic acid derivatives and their use as pharmaceuticals” (Sanofi, priority 2010, dated 2014).
# pIC50: −log10 of the molar value.
# Biological target: T1, Recombinant human cathepsin A (Homo sapiens, UniProt P10619)
# T1 construct: Recombinant human cathepsin A (residues 29-480, with a C-terminal 10-His tag); 10-His (C); purchased R&D Systems 1049-SE
# T1 sequence (P10619 29-312 limits assumed): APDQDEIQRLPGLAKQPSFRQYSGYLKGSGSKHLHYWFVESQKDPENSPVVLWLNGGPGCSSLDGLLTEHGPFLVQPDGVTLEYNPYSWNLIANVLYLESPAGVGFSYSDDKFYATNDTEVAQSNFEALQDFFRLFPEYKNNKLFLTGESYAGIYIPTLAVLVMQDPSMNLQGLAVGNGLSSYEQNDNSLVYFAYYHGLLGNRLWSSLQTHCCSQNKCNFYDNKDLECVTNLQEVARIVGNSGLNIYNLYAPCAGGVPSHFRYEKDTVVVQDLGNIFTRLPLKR
# T1 sequence (P10619 327-480 limits assumed): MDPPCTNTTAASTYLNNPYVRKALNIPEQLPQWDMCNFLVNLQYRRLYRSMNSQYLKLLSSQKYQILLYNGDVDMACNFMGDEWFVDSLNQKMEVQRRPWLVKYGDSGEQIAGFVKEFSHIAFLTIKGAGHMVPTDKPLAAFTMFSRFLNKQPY
# Assay: Cathepsin A inhibitory activity
# Format: biochemical
# Settings: pharmacological test "Cathepsin A inhibitory activity"; IC50 given as class A/B/C; read-out: Activity (2): Cathepsin A inhibitory activity, IC50 class
# Outline: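 Read-out was microfluidic separation of cleaved vs. uncleaved Bodipy FL-bradykinin (2 μM), giving turnover, % inhibition and IC50. Compound and 833 ng/ml enzyme met for 15 min RT in pH 5.5 MES/DTT before substrate (15 min RT). The 29-480 His-tagged human enzyme was first activated by cathepsin L, then E-64 (10 μM).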
row,Structure (SMILES),pIC50
1,O=C(O)CC(NC(=O)c1cc(O)n(-c2ccncc2)n1)c1ccc(-c2ccccc2)cc1 (centres unmarked) [Example 151],4.52 to 6.00
2,O=C(O)C[C@H](NC(=O)c1cc(O)n(-c2ccccc2Cl)n1)c1ccccc1Br [Example 204],6.00 to 7.00
3,O=C(O)CC(NC(=O)c1cc(O)n(-c2ccccc2F)n1)c1ccc(C(F)(F)F)cc1F (centres unmarked) [Example 238],6.00 to 7.00
4,O=C(O)C[C@H](NC(=O)c1cc(O)n(-c2ccccc2Cl)n1)c1cccnc1 [Example 145],6.00 to 7.00
5,COc1ccc(C(CC(=O)O)NC(=O)c2cc(O)n(-c3ccccc3Cl)n2)c(OC)c1 (centres unmarked) [Example 207],6.00 to 7.00

# Continued, values first:
row,pIC50,Structure (SMILES)
1,> 7.00,Cc1cccc(C(CC(=O)O)NC(=O)c2cc(O)n(-c3ccc(F)cc3F)n2)c1C (centres unmarked) [Example 191]
2,6.00 to 7.00,O=C(O)CC(NC(=O)c1cc(O)n(-c2ccc(F)cc2F)n1)c1cccc(C(F)(F)F)c1Cl (centres unmarked) [Example 193]

# Same assay, conditions: read-out: Activity (2): Cathepsin A inhibitory activity (IC50 class)
row,Structure (SMILES),pIC50
1,"COc1ccc(C(F)(F)F)cc1C(CC(=O)O)NC(=O)c1cc(O)n(-c2ccccc2Cl)n1 (centres unmarked) [Example 560, 3-{[1-(2-Chloro-phenyl)-5-hydroxy-1H-pyrazole-3-carbonyl]-amino}-3-(2-methoxy-5-trifluoromethyl-phenyl)-propionic acid]",4.52 to 6.00
2,"COc1cc(C(=O)NC(CC(=O)O)c2ccc(-c3ccccn3)cc2)nn1-c1ccccc1 (centres unmarked) [Example 597, 3-[(5-Methoxy-1-phenyl-1H-pyrazole-3-carbonyl)-amino]-3-(4-pyridin-2-yl-phenyl)-propionic acid]",6.00 to 7.00
3,Cc1ccc(C(CC(=O)O)NC(=O)c2cc(OCC3CC3)n(-c3ccccc3F)n2)c(C)c1 (centres unmarked) [Example 686],> 7.00
4,O=C(O)CC(NC(=O)c1cc(O)n(-c2ccccc2)n1)c1ccc(-c2ccccc2F)cc1 (centres unmarked) [Example 583],4.52 to 6.00
5,Cc1ccccc1[C@H](CC(=O)O)NC(=O)c1cc(OCC2CCCCO2)n(-c2ccccc2F)n1 (some centres unmarked) [Example 653],> 7.00
6,Cc1ccccc1[C@H](CC(=O)O)NC(=O)c1cc(OCc2ccccn2)n(-c2ccccc2F)n1 [Example 640],> 7.00
7,"COc1ccc(F)c(C(CC(=O)O)NC(=O)c2cc(O)n(-c3ccccc3Cl)n2)c1 (centres unmarked) [Example 559, 3-{[1-(2-Chloro-phenyl)-5-hydroxy-1H-pyrazole-3-carbonyl]-amino}-3-(2-fluoro-5-methoxy-phenyl)-propionic acid]",6.00 to 7.00
8,CCOc1cc(C(=O)N[C@@H](CC(=O)O)c2ccc(C(F)(F)F)cc2)nn1-c1ccccc1F [Example 715],> 7.00
9,"CC(C)(C)[C@](C)(O)COc1cc(C(=O)N[C@@H](CC(=O)O)c2ccccc2Cl)nn1-c1ccccc1F [Example 789, (S)-3-(2-Chloro-phenyl)-3-{[1-(2-fluoro-phenyl)-5-((S)-2-hydroxy-2,3,3-trimethyl-butoxy)-1H-pyrazole-3-carbonyl]-amino}-propionic acid]",> 7.00
10,"Cc1ccccc1[C@H](CC(=O)O)NC(=O)c1cc(OC[C@@](C)(O)C2CC2)n(-c2ccccc2F)n1 (single isomer, unassigned) [Example 764]",> 7.00
11,O=C(O)CC(NC(=O)c1cc(O)n(-c2ccccc2)n1)c1ccc(-c2ccc(C(F)(F)F)cc2)cc1 (centres unmarked) [Example 579],4.52 to 6.00
12,Cc1ccccc1[C@H](CC(=O)O)NC(=O)c1cc(OC[C@@H]2CCC(=O)N2)n(-c2ccccc2F)n1 [Example 654],> 7.00

# Same assay, conditions: read-out: Activity (2): Cathepsin A inhibitory activity, IC50 class
row,Structure (SMILES),pIC50
1,"CC(C)(C)C(=O)COc1cc(C(=O)N[C@@H](CC(=O)O)c2cccc(Cl)c2)nn1-c1ccccc1F [Example 796, (S)-3-(3-Chloro-phenyl)-3-{[5-(3,3-dimethyl-2-oxo-butoxy)-1-(2-fluoro-phenyl)-1H-pyrazole-3-carbonyl]-amino}-propionic acid]",> 7.00
2,"Cc1cccc([C@H](CC(=O)O)NC(=O)c2cc(OC[C@H](O)C(C)(C)C)n(-c3ccccc3F)n2)c1 [Example 804, (S)-3-{[1-(2-Fluoro-phenyl)-5-((R)-2-hydroxy-3,3-dimethyl-butoxy)-1H-pyrazole-3-carbonyl]-amino}-3-m-tolyl-propionic acid]",> 7.00
3,O=C(O)CC(NC(=O)c1cc(O)n(-c2ccccc2)n1)c1cc(C(F)(F)F)cc(C(F)(F)F)c1 (centres unmarked) [Example 59],4.52 to 6.00
4,Cc1ccc(C(CC(=O)O)NC(=O)c2cc(O)n(-c3ccccc3)n2)cc1 (centres unmarked) [Example 64],6.00 to 7.00
5,"CC(C)(C)[C@H](O)COc1cc(C(=O)N[C@@H](CC(=O)O)c2ccc(Cl)cc2)nn1-c1ccccc1F [Example 794, (S)-3-(4-Chloro-phenyl)-3-{[1-(2-fluoro-phenyl)-5-((S)-2-hydroxy-3,3-dimethyl-butoxy)-1H-pyrazole-3-carbonyl]-amino}-propionic acid]",> 7.00
6,O=C(O)CC(NC(=O)c1cc(O)n(-c2ccccc2)n1)c1cccnc1 (centres unmarked) [Example 16],6.00 to 7.00
7,Cc1ccc(C)c(-n2nc(C(=O)NC(CC(=O)O)C3CCCC3)cc2O)c1 (centres unmarked) [Example 44],4.52 to 6.00

# Other lines, results leading:
row,pIC50,Structure (SMILES)
1,6.00 to 7.00,Cc1cccc(C(CC(=O)O)NC(=O)c2cc(O)n(-c3ccc(Cl)cc3)n2)c1C (centres unmarked) [Example 287]
2,6.00 to 7.00,O=C(O)CC(NC(=O)c1cc(O)n(-c2ccc(F)cc2)n1)c1cccc(C(F)(F)F)c1F (centres unmarked) [Example 360]
3,6.00 to 7.00,Cc1cc(F)ccc1C(CC(=O)O)NC(=O)c1cc(O)n(-c2ccc(Cl)cc2)n1 (centres unmarked) [Example 292]
4,6.00 to 7.00,O=C(O)C[C@H](NC(=O)c1cc(O)n(-c2ccc(F)cc2)n1)c1cccc(Cl)c1 [Example 350]
5,6.00 to 7.00,Cc1ccc(C)c(C(CC(=O)O)NC(=O)c2cc(O)n(-c3ccccc3)n2)c1 (centres unmarked) [Example 378]
6,6.00 to 7.00,COc1ccc(C(CC(=O)O)NC(=O)c2cc(O)n(-c3ccccc3)n2)c(C)c1 (centres unmarked) [Example 373]
7,6.00 to 7.00,Cc1cccc(C(CC(=O)O)NC(=O)c2cc(O)n(-c3ccccc3)n2)c1C (centres unmarked) [Example 377]
8,6.00 to 7.00,COc1cccc([C@H](CC(=O)O)NC(=O)c2cc(O)n(-c3ccccc3F)n2)c1OC [Example 403]
9,4.52 to 6.00,COc1cccc([C@H](CC(=O)O)NC(=O)c2cc(O)n(-c3ccc(F)cc3)n2)c1 [Example 348]
10,6.00 to 7.00,Cc1ccccc1C(CC(=O)O)NC(=O)c1cc(O)n(-c2ccc(F)c(Cl)c2)n1 (centres unmarked) [Example 80]
11,6.00 to 7.00,Cc1ccc(C(CC(=O)O)NC(=O)c2cc(O)n(-c3ccccc3)n2)c(C)c1 (centres unmarked) [Example 84]
12,6.00 to 7.00,Cc1cc(F)ccc1C(CC(=O)O)NC(=O)c1cc(O)n(-c2cccc(F)c2)n1 (centres unmarked) [Example 326]

# Same assay, conditions: recombinant human cathepsin A 833 ng/ml, Bodipy FL-labeled bradykinin 2 μM, pH 5.5; read-out: CATH-A IC50
row,Structure (SMILES),pIC50
1,"COc1ccc(C(F)(F)F)cc1C(CC(=O)O)NC(=O)c1cc(O)n(-c2ccccc2Cl)n1 (centres unmarked) [Example 560, 3-{[1-(2-Chloro-phenyl)-5-hydroxy-1H-pyrazole-3-carbonyl]-amino}-3-(2-methoxy-5-trifluoromethyl-phenyl)-propionic acid]",5.12
2,"COc1ccc(F)c(C(CC(=O)O)NC(=O)c2cc(O)n(-c3ccccc3Cl)n2)c1 (centres unmarked) [Example 559, 3-{[1-(2-Chloro-phenyl)-5-hydroxy-1H-pyrazole-3-carbonyl]-amino}-3-(2-fluoro-5-methoxy-phenyl)-propionic acid]",6.14
3,"Cc1ccc([C@H](CC(=O)O)NC(=O)c2cc(O)n(-c3ccc(F)cc3F)n2)cc1 [Example 454, (S)-3-{[1-(2,4-Difluoro-phenyl)-5-hydroxy-1H-pyrazole-3-carbonyl]-amino}-3-p-tolyl-propionic acid]",6.73

# Continued, values first:
row,pIC50,Structure (SMILES)
1,6.86,"O=C(O)CC(NC(=O)c1cc(O)n(-c2ccccc2F)n1)c1cc(F)ccc1Cl (centres unmarked) [Example 475, 3-(2-Chloro-5-fluoro-phenyl)-3-{[1-(2-fluoro-phenyl)-5-hydroxy-1H-pyrazole-3-carbonyl]-amino}-propionic acid]"
2,6.67,"O=C(O)CC(NC(=O)c1cc(O)n(-c2ccccc2)n1)c1cc(F)ccc1Cl (centres unmarked) [Example 495, 3-(2-Chloro-5-fluoro-phenyl)-3-[(5-hydroxy-1-phenyl-1H-pyrazole-3-carbonyl)-amino]-propionic acid]"
3,7.08,"O=C(O)CC(NC(=O)c1cc(O)n(-c2ccccc2)n1)c1cc(Cl)ccc1Cl (centres unmarked) [Example 444, 3-(2,5-Dichloro-phenyl)-3-[(5-hydroxy-1-phenyl-1H-pyrazole-3-carbonyl)-amino]-propionic acid]"
4,6.25,"O=C(O)CC(NC(=O)c1cc(O)n(-c2cccc(Cl)c2)n1)c1cc(F)ccc1C(F)(F)F (centres unmarked) [Example 466, 3-{[1-(3-Chloro-phenyl)-5-hydroxy-1H-pyrazole-3-carbonyl]-amino}-3-(5-fluoro-2-trifluoromethyl-phenyl)-propionic acid]"

# Same assay, conditions: recombinant human cathepsin A; read-out: Activity (2): Cathepsin A inhibitory activity, IC50 class
row,Structure (SMILES),pIC50
1,"COCCNC(=O)C[C@H](NC(=O)c1cc(OC)n(-c2ccccc2F)n1)c1ccccc1C [Example 935, 1-(2-Fluoro-phenyl)-5-methoxy-1H-pyrazole-3-carboxylic acid [(S)-2-(2-methoxy-ethylcarbamoyl)-1-o-tolyl-ethyl]-amide]",> 7.00
2,"Cc1ccc([C@H](CC(=O)O)NC(=O)c2cc(O)n(-c3ccc(F)cc3F)n2)cc1 [Example 454, (S)-3-{[1-(2,4-Difluoro-phenyl)-5-hydroxy-1H-pyrazole-3-carbonyl]-amino}-3-p-tolyl-propionic acid]",6.00 to 7.00
3,COc1ccc(-c2ccc(C(CC(=O)O)NC(=O)c3cc(O)n(-c4ccccc4F)n3)cc2)cn1 (centres unmarked) [Example 531],6.00 to 7.00
4,O=C(O)CC(NC(=O)c1cc(O)n(-c2ccccc2F)n1)c1ccc(-c2ccccn2)cc1 (centres unmarked) [Example 481],6.00 to 7.00

# Next, values leading:
row,pIC50,Structure (SMILES)
1,6.00 to 7.00,O=C(O)CC(NC(=O)c1cc(O)n(-c2cccc(F)c2)n1)c1cccc2c1OC(F)(F)O2 (centres unmarked) [Example 484]
2,6.00 to 7.00,O=C(O)C[C@H](NC(=O)c1cc(O)n(-c2cccc(Cl)c2)n1)c1ccccc1F [Example 422]
3,6.00 to 7.00,"O=C(O)CC(NC(=O)c1cc(O)n(-c2ccccc2F)n1)c1cc(F)ccc1Cl (centres unmarked) [Example 475, 3-(2-Chloro-5-fluoro-phenyl)-3-{[1-(2-fluoro-phenyl)-5-hydroxy-1H-pyrazole-3-carbonyl]-amino}-propionic acid]"
4,6.00 to 7.00,"O=C(O)CC(NC(=O)c1cc(O)n(-c2ccccc2)n1)c1cc(F)ccc1Cl (centres unmarked) [Example 495, 3-(2-Chloro-5-fluoro-phenyl)-3-[(5-hydroxy-1-phenyl-1H-pyrazole-3-carbonyl)-amino]-propionic acid]"
5,6.00 to 7.00,O=C(O)CC(NC(=O)c1cc(O)n(-c2cccc(F)c2)n1)c1cc(Cl)ccc1Cl (centres unmarked) [Example 488]
6,> 7.00,"O=C(O)CC(NC(=O)c1cc(O)n(-c2ccccc2)n1)c1cc(Cl)ccc1Cl (centres unmarked) [Example 444, 3-(2,5-Dichloro-phenyl)-3-[(5-hydroxy-1-phenyl-1H-pyrazole-3-carbonyl)-amino]-propionic acid]"
7,6.00 to 7.00,"O=C(O)CC(NC(=O)c1cc(O)n(-c2cccc(Cl)c2)n1)c1cc(F)ccc1C(F)(F)F (centres unmarked) [Example 466, 3-{[1-(3-Chloro-phenyl)-5-hydroxy-1H-pyrazole-3-carbonyl]-amino}-3-(5-fluoro-2-trifluoromethyl-phenyl)-propionic acid]"
